Ends that are not written are not given here.

The subject of data set [1] is HaCaT cell line. Kind of data set: Cytotoxicity (MTT) of oligopeptide in HaCaT human keratinocytes. The class given is cell-based. The following applies: 50 ppm and 100 ppm oligopeptide. As to the method: (§1) In order to evaluate the stability of the oligopeptide prepared in Preparation Example 1 when applied to humans, irritation of the skin and scalp due to cytotoxicity was measured using a HaCaT cell line as human keratinocytes.
(§2) The HaCaT cell line used therefor was incubated at 37° C. in a […] incubator. When the extent of incubation arrived at 85 to 90% of the area of a culture vessel, the cells were detached with trypsin, counted, and subjected to subculture at 5×10^3 cells/cm^2.
(§3) For cell culture, a Dulbecco's Modified Eagle Medium (DMEM, GIBCO, Cat. No. 11995-065, USA), containing 10% fetal bovine serum (FBS, GIBCO, Cat. No., 26140-079, USA), 100 U/ml penicillin, and 100 μg/ml streptomycin, was used. For subculture, a 75 T-flask (NUNC, Cat. No. 156499, Denmark) was used, and the cytotoxicity test was carried out using a 24-well plate (NUNC, Cat. No. 142475, Denmark).
(§4) The human keratinocytes were counted at 5×10^3 cells/well each and then aliquoted into the 24-well plate using a hemocytometer. These cells were incubated in DMEM containing 10% FBS for 48 hr. When the extent of incubation arrived at 40 to 50% of the surface area of the culture vessel, the medium was replaced with FBS-free DMEM containing each of 50 ppm oligopeptide and 100 ppm oligopeptide, and culture was further conducted for 24 hr. Thereafter, 50 μl of a 3-(4,5-dimethylthiazol-2-yl)-2,5-diphenyl tetrazolium bromide (MTT, Sigma M5655, USA) solution (2.5 mg/ml) was added and culture was further performed for 3 hr. Then, the cell culture broth was discarded, 200 μl of dimethyl sulfoxide (DMSO, Sigma D2650, USA) was added to each well and shaken, 100 μl thereof was transferred into a 96-well plate, and the absorbance thereof was measured at 570 nm using an Enzyme-Linked Immunosorbent Assay (ELISA).
(§5) The cytotoxicity was represented as a percentage based on the absorbance intensity of a control using pure water.

Assay in data set [2]: as above
The following applies: 24 hr, MTT absorbance 570 nm as percentage of pure water control. The format is cell-based. As to the method:
as §1, §2, §3, §4, §5

With “GQQKRSDRLNLSR-OH [Oligopeptide, Gly-Gln-Gln-Lys-Arg-Ser-Asp-Arg-Leu-Asn-Leu-Ser-Arg]”, in data set [1], the “cytotoxicity compared to the control” value is “no cytotoxicity”. Besides, the viability in data set [2] (50 ppm oligopeptide) came out at 93%; in data set [2] (100 ppm oligopeptide), 81%.

The values are drawn from patent publication US20170340544A1, “COSMETIC COMPOSITION FOR IMPROVING HEALTH OF SCALP AND METHOD OF PREPARING THE SAME” (OLIPASS Cosmeceuticals Company, priority 2016, published 2017).
